Patent US20240190950A1, “METHOD OF TREATING DISEASES USING GREMLIN1 ANTAGONISTS” (SHANGHAI JIAO TONG UNIVERSITY, priority 2021, published 2024)

Tests used:
Assay type in all cases: cell-based, human
LNCaP cells = test: GREM1-promoted PCa cell proliferation and sphere formation with FGFR1/MEK inhibitors or BMP4
From the text: (§1) MAPK signaling can be activated through many membrane receptors besides FGFR. To test whether the activation of MAPK pathway by GREM1 was via FGFR, we constructed a FGFR1 knockout LNCaP subline by the CRISPR/Cas9 method. […] To further test whether the tumor promoting effect of GREM1 was through FGFR, we utilized small molecule inhibitors of FGFR or EGFR.

[1] = tested on: FGFR1/MEK/ERK signaling pathway; test: FGFR1/MEK/ERK phosphorylation in PCa cell lines (immunoblotting)
Procedure: In order to test whether Gremlin1 promoted the FGFR-MAPK signaling, we first performed analysis of the expression levels of the four FGFRs in CRPC patients. […] We treated LNCaP and PC3 with GREM1 in different concentrations (1 ng/ml, 10 ng/ml, 100 ng/ml) and examined phosphorylation levels of FGFR1, MEK and ERK.
as §1
14E3 was tested to target GREM1 in human PCa.

[2] = tested on: GREM1 expression in LNCaP cells; test: Regulation of GREM1 expression by AR agonist/antagonist in LNCaP cells (q-PCR, immunoblot, luciferase reporter); conditions: R1881 1 nM, enzalutamide 10 μg/ml
From the text: AR plays a central role in PCa. To assess the relationship between Gremlin1 and AR signaling, we performed further IHC staining for Gremlin1 and PSA, a classic downstream target of AR, on sections of CRPC specimens. […] In addition, we detected a significant increase of GREM1 in a castration resistant LNCaP cell line (termed as LNCaP R), which was derived from xenograft LNCaP tumors implanted in castrated mice, compared to a control LNCaP cell line generated from xenografts in intact mice (FIG. 2A). We then asked whether the expression of GREM1 was regulated by AR signaling. We utilized an AR expressing lentivirus or the CRISPR/Cas9 method to achieve AR upregulation (FIG. 2B) or knockout in the LNCaP PCa cell line (FIG. 2D). […] This conclusion was supported by AR agonist R1881 and antagonist Enzalutamide treatment experiments (FIG. 1D, 1E).
Additionally, we carried out a luciferase reporter assay.

| Molecule | proliferation promoting role of GREM1 (LNCaP cells) | sphere-formation promoting role of GREM1 (LNCaP cells) | activation of MAPK/FGFR1 signaling axis by GREM1 in presence of inhibitor ([1]; inhibitor 1 μM, Gremlin1 100 ng/ml, PC3 and LNCaP-resistance cells) | GREM1 mRNA transcription [2] | GREM1 promoter driven luciferase activity [2] | Gremlin1 protein level [2] | time of highest MAPK signaling activation ([1]; FGF 20 ng/ml, PC3 and LNCaP cells, quickly diminished afterwards) [min] |
| --- | --- | --- | --- | --- | --- | --- | --- |
| CCN1CCN(c2ccc(Nc3cc(N(C)C(=O)Nc4c(Cl)c(OC)cc(OC)c4Cl)ncn3)cc2)CC1 [BGJ398, reference compound] | significantly compromised | significantly compromised | attenuated |  |  |  |  |
| CNC(=O)c1ccc(N2C(=S)N(c3ccc(C#N)c(C(F)(F)F)c3)C(=O)C2(C)C)cc1F [enzalutamide] |  |  |  | significantly increased | enhanced | significantly increased |  |
| FGF1: known FGFR1 ligand used as a positive control |  |  |  |  |  |  | 10 |
| C[C@]1(O)CC[C@H]2[C@@H]3CCC4=CC(=O)CCC4=C3C=C[C@@]21C [R1881] |  |  |  | downregulated | greatly inhibited | downregulated |  |
